Test results from ChEMBL document CHEMBL5625248, “Identification of unique indolylcyanoethylenyl sulfonylanilines as novel structural scaffolds of potential antibacterial agents” (Eur J Med Chem, 2023).
≈ marks a conversion by molar mass, not a printed value.

Tests used:
Type in all cases: functional
Enterococcus faecalis = test: Antibacterial activity against Enterococcus faecalis assessed as inhibition of bacterial growth incubated for 18 hrs by two fold broth microdilution assay
Staphylococcus aureus [1] = test: Antibacterial activity against Staphylococcus aureus ATCC 25923 assessed as inhibition of bacterial growth incubated for 18 hrs by two fold broth microdilution assay
Staphylococcus aureus [2] = test: Antibacterial activity against Staphylococcus aureus ATCC 29213 assessed as inhibition of bacterial growth incubated for 18 hrs by two fold broth microdilution assay
Klebsiella pneumoniae = test: Antibacterial activity against Klebsiella pneumoniae assessed as inhibition of bacterial growth incubated for 18 hrs by two fold broth microdilution assay
Acinetobacter baumannii = test: Antibacterial activity against Acinetobacter baumannii assessed as inhibition of bacterial growth incubated for 18 hrs by two fold broth microdilution assay
Staphylococcus aureus [3] = test: Antibacterial activity against methicilin-resistant Staphylococcus aureus N315 assessed as inhibition of bacterial growth incubated for 18 hrs by two fold broth microdilution assay
Staphylococcus aureus [4] = test: Antibacterial activity against Staphylococcus aureus assessed as inhibition of bacterial growth incubated for 18 hrs by two fold broth microdilution assay
Pseudomonas aeruginosa [5] = test: Antibacterial activity against Pseudomonas aeruginosa ATCC 27853 assessed as inhibition of bacterial growth incubated for 18 hrs by two fold broth microdilution assay
Escherichia coli [6] = test: Antibacterial activity against Escherichia coli ATCC 25922 assessed as inhibition of bacterial growth incubated for 18 hrs by two fold broth microdilution assay
Pseudomonas aeruginosa [7] = test: Antibacterial activity against Pseudomonas aeruginosa assessed as inhibition of bacterial growth incubated for 18 hrs by two fold broth microdilution assay
Escherichia coli [8] = test: Antibacterial activity against Escherichia coli assessed as inhibition of bacterial growth incubated for 18 hrs by two fold broth microdilution assay

| Structure (SMILES) | MIC (Enterococcus faecalis) | MIC (Staphylococcus aureus [1]) | MIC (Staphylococcus aureus [2]) | MIC (Klebsiella pneumoniae) | MIC (Acinetobacter baumannii) | MIC (Staphylococcus aureus [3]) | MIC (Staphylococcus aureus [4]) | MIC (Pseudomonas aeruginosa [5]) | MIC (Escherichia coli [6]) | MIC (Pseudomonas aeruginosa [7]) | MIC (Escherichia coli [8]) |
| --- | --- | --- | --- | --- | --- | --- | --- | --- | --- | --- | --- |
| CCCCCn1cc(/C=C(\C#N)S(=O)(=O)c2ccc(N)cc2)c2ccccc21 | 128 µg/mL (≈ 325 µM) | 128 µg/mL (≈ 325 µM) | 16 µg/mL (≈ 40.7 µM) | 8 µg/mL (≈ 20.3 µM) | 32 µg/mL (≈ 81.3 µM) | 256 µg/mL (≈ 651 µM) | 256 µg/mL (≈ 651 µM) | 64 µg/mL (≈ 163 µM) | 16 µg/mL (≈ 40.7 µM) | 64 µg/mL (≈ 163 µM) | 8 µg/mL (≈ 20.3 µM) |
| CN(C)CCn1cc(/C=C(\C#N)S(=O)(=O)c2ccc(N)cc2)c2ccccc21 | 64 µg/mL (≈ 162 µM) | 2 µg/mL (≈ 5.07 µM) | 8 µg/mL (≈ 20.3 µM) | 128 µg/mL (≈ 324 µM) | 16 µg/mL (≈ 40.6 µM) | 128 µg/mL (≈ 324 µM) | 2 µg/mL (≈ 5.07 µM) | 32 µg/mL (≈ 81.1 µM) | 256 µg/mL (≈ 649 µM) | 64 µg/mL (≈ 162 µM) | 128 µg/mL (≈ 324 µM) |
| N#C/C(=C\c1c[nH]c2cccc(Cl)c12)S(=O)(=O)c1ccc(N)cc1 | 32 µg/mL (≈ 89.4 µM) | 128 µg/mL (≈ 358 µM) | 32 µg/mL (≈ 89.4 µM) | 4 µg/mL (≈ 11.2 µM) | 16 µg/mL (≈ 44.7 µM) | 64 µg/mL (≈ 179 µM) | 32 µg/mL (≈ 89.4 µM) | 64 µg/mL (≈ 179 µM) | 64 µg/mL (≈ 179 µM) | 64 µg/mL (≈ 179 µM) | 256 µg/mL (≈ 715 µM) |
| CC(=O)Nc1ccc(S(=O)(=O)/C(C#N)=C/c2cn(Cc3ccc(Cl)c(Cl)c3)c3ccccc23)cc1 | 128 µg/mL (≈ 244 µM) | 32 µg/mL (≈ 61 µM) | 4 µg/mL (≈ 7.63 µM) | 64 µg/mL (≈ 122 µM) | 32 µg/mL (≈ 61 µM) | 256 µg/mL (≈ 488 µM) | 128 µg/mL (≈ 244 µM) | 16 µg/mL (≈ 30.5 µM) | 256 µg/mL (≈ 488 µM) | 128 µg/mL (≈ 244 µM) | 128 µg/mL (≈ 244 µM) |
| CC(=O)Nc1ccc(S(=O)(=O)/C(C#N)=C/c2cn(CC(=O)N3CCCC3)c3ccccc23)cc1 | 128 µg/mL (≈ 269 µM) | 128 µg/mL (≈ 269 µM) | 16 µg/mL (≈ 33.6 µM) | 64 µg/mL (≈ 134 µM) | 64 µg/mL (≈ 134 µM) | 256 µg/mL (≈ 537 µM) | 128 µg/mL (≈ 269 µM) | 128 µg/mL (≈ 269 µM) | 128 µg/mL (≈ 269 µM) | 64 µg/mL (≈ 134 µM) | 64 µg/mL (≈ 134 µM) |
| N#C/C(=C\c1c[nH]c2cc(F)ccc12)S(=O)(=O)c1ccc(N)cc1 | 8 µg/mL (≈ 23.4 µM) | 4 µg/mL (≈ 11.7 µM) | 128 µg/mL (≈ 375 µM) | 64 µg/mL (≈ 187 µM) | 8 µg/mL (≈ 23.4 µM) | 16 µg/mL (≈ 46.9 µM) | 4 µg/mL (≈ 11.7 µM) | 8 µg/mL (≈ 23.4 µM) | 8 µg/mL (≈ 23.4 µM) | 4 µg/mL (≈ 11.7 µM) | 256 µg/mL (≈ 750 µM) |
| N#C/C(=C\c1c[nH]c2ccc([N+](=O)[O-])cc12)S(=O)(=O)c1ccc(N)cc1 | 128 µg/mL (≈ 347 µM) | 128 µg/mL (≈ 347 µM) | 64 µg/mL (≈ 174 µM) | 4 µg/mL (≈ 10.9 µM) | 64 µg/mL (≈ 174 µM) | 128 µg/mL (≈ 347 µM) | 64 µg/mL (≈ 174 µM) | 16 µg/mL (≈ 43.4 µM) | 8 µg/mL (≈ 21.7 µM) | 64 µg/mL (≈ 174 µM) | 128 µg/mL (≈ 347 µM) |
| CC(=O)Nc1ccc(S(=O)(=O)/C(C#N)=C/c2cn(Cc3ccccc3Cl)c3ccccc23)cc1 | 4 µg/mL (≈ 8.16 µM) | 4 µg/mL (≈ 8.16 µM) | 8 µg/mL (≈ 16.3 µM) | 2 µg/mL (≈ 4.08 µM) | 8 µg/mL (≈ 16.3 µM) | 16 µg/mL (≈ 32.7 µM) | 2 µg/mL (≈ 4.08 µM) | 4 µg/mL (≈ 8.16 µM) | 1 µg/mL (≈ 2.04 µM) | 2 µg/mL (≈ 4.08 µM) | 2 µg/mL (≈ 4.08 µM) |
| CCCCCn1cc(/C=C(\C#N)S(=O)(=O)c2ccc(NC(C)=O)cc2)c2ccccc21 | 256 µg/mL (≈ 588 µM) | 8 µg/mL (≈ 18.4 µM) | 16 µg/mL (≈ 36.7 µM) | 8 µg/mL (≈ 18.4 µM) | 64 µg/mL (≈ 147 µM) | 256 µg/mL (≈ 588 µM) | 128 µg/mL (≈ 294 µM) | 64 µg/mL (≈ 147 µM) | 16 µg/mL (≈ 36.7 µM) | 64 µg/mL (≈ 147 µM) | 64 µg/mL (≈ 147 µM) |
| N#C/C(=C\c1cn(Cc2cccc(Cl)c2)c2ccccc12)S(=O)(=O)c1ccc(N)cc1 | 128 µg/mL (≈ 286 µM) | 64 µg/mL (≈ 143 µM) | 32 µg/mL (≈ 71.4 µM) | 256 µg/mL (≈ 571 µM) | 32 µg/mL (≈ 71.4 µM) | 128 µg/mL (≈ 286 µM) | 128 µg/mL (≈ 286 µM) | 64 µg/mL (≈ 143 µM) | 32 µg/mL (≈ 71.4 µM) | 64 µg/mL (≈ 143 µM) | 256 µg/mL (≈ 571 µM) |
| CC(=O)Nc1ccc(S(=O)(=O)/C(C#N)=C/c2cn(CC(=O)N3CCOCC3)c3ccccc23)cc1 | 64 µg/mL (≈ 130 µM) | 64 µg/mL (≈ 130 µM) | 2 µg/mL (≈ 4.06 µM) | 128 µg/mL (≈ 260 µM) | 128 µg/mL (≈ 260 µM) | 16 µg/mL (≈ 32.5 µM) | 256 µg/mL (≈ 520 µM) | 256 µg/mL (≈ 520 µM) | 128 µg/mL (≈ 260 µM) | 64 µg/mL (≈ 130 µM) | 256 µg/mL (≈ 520 µM) |
| N#C/C(=C\c1cn(Cc2ccccc2F)c2ccccc12)S(=O)(=O)c1ccc(N)cc1 | 64 µg/mL (≈ 148 µM) | 8 µg/mL (≈ 18.5 µM) | 4 µg/mL (≈ 9.27 µM) | 128 µg/mL (≈ 297 µM) | 256 µg/mL (≈ 593 µM) | 64 µg/mL (≈ 148 µM) | 256 µg/mL (≈ 593 µM) | 128 µg/mL (≈ 297 µM) | 8 µg/mL (≈ 18.5 µM) | 64 µg/mL (≈ 148 µM) | 256 µg/mL (≈ 593 µM) |
| CC(=O)Nc1ccc(S(=O)(=O)/C(C#N)=C/c2c[nH]c3cccc(Cl)c23)cc1 | 32 µg/mL (≈ 80 µM) | 128 µg/mL (≈ 320 µM) | 32 µg/mL (≈ 80 µM) | 4 µg/mL (≈ 10 µM) | 16 µg/mL (≈ 40 µM) | 64 µg/mL (≈ 160 µM) | 32 µg/mL (≈ 80 µM) | 32 µg/mL (≈ 80 µM) | 16 µg/mL (≈ 40 µM) | 64 µg/mL (≈ 160 µM) | 128 µg/mL (≈ 320 µM) |
